Structures are written as SMILES. Where two headings read alike, the source gives them in different places. Where only a bound is given, the exact number is not on record here.

In assay [1] the test system is AsPC-1 cells (KRAS G12D). Put plainly: 3D Cell viability assay in AsPC-1 cells (Biological Example 6). It counts as cell-based. The following applies: AsPC-1 (KRAS G12D) spheroids, 72 hours. As to the method: (§1) Biological Example 6: 3D Cell viability assay in AsPC-1, SW1900, HPAC, Capan-2, RKN, H358, HCT116, KP-2, H1573, A549, MKN1, and HT1080 cells
(§2) The inhibition of cellular viability as a result of test compound treatment in a spheroid assay was measured using the CellTiter-Glow 3D Cell Viability Assay (Promega).
(§3) On Day 1, 1000 cells per well were seeded in 150 μL of complete growth media supplemented with 10% fetal bovine serum (FBS) and incubated at 37° C., in the presence of 5% CO2 in 96-well ultra-low attachment microplates (Corning) for 48 hours undisturbed to allow spheroids to form.
(§4) Following spheroid formation, cells were treated with compounds diluted in DMSO at 0.25% final DMSO concentration. Compounds were dosed in a 9-point concentration curve with three-fold dilution between concentrations. Cells were incubated in the presence of compound for 72 hours at 37° C., in the presence of 5% CO2.
(§5) Following this incubation period, the kit-provided CTG reagent was allowed to equilibrate for 30 minutes at room temperature, 150 μL of equilibrated CTG reagent was added to each well, and the plate was sealed before shaking at 250 rpm for 10 minutes at room temperature to lyse the cells, 150 μL of lysate per well was transferred to a 96-well plate and luminescence was read on a CLARIOstar plate reader.
(§6) Data was imported into the Prism software package (Graphpad) and EC50 values were calculated using the log (inhibitor) vs, response—variable slope (Four parameters) model.

Assay [2] concerns HPAC cells (KRAS G12D). Put plainly: Cell-based pERK HTRF assay in HPAC cells (Biological Example 5). As to the method: (§7) Biological Example 5: Cell-based PERK HTRF assay in AsPC-1, SW1900, HPAC, Capan-2, RKN, H358, HCT116, KP-2, H1573, A549, MKN1, and HT1080 cells
(§8) The inhibition of ERK phosphorylation, as measured using the HTRF Advanced Phospho-ERK 1/2 (Thr202/Tyr204) Detection Assay kit (Perkin Elmer), was used to determine the effectiveness of test compounds in disrupting KRAS-driven protein/effector signaling in cells.
(§9) On day 1, cells were seeded into 96-well plates at 2.5×10^4 cells/well in 100 μL of complete growth media supplemented with 10% fetal bovine serum (FBS) and incubated at 37° C., in the presence of 5% CO2.
(§10) On day 2, cells were treated with compounds diluted in DMSO at 0.25% final DMSO concentration. Compounds were dosed in a 9-point concentration curve with three-fold dilution between concentrations. Cells were incubated in the presence of compound for two hours at 37° C. Following this treatment period, cells were harvested by aspirating the media, adding 40 μL of kit-supplied 1x lysis buffer per well, and shaking for 30 minutes at 250 rpm at room temperature.
(§11) Following cell lysis, samples were homogenized by pipetting up and down twenty times and 16 μL of cell lysate per well was transferred from the 96-well cell culture plate to two wells of a 384-well detection plate. A complete detection buffer was prepared by diluting D2 and Eu Cryptate antibodies 1:20 in kit-provided detection solution, 4 μL of complete detection buffer was then added to each well with lysate. Plates were incubated with gentle rocking for 24 hours at 4° C.
(§12) Following this incubation period, plates were centrifuged at 500×g for one minute and analyzed on a CLARIOstar plate reader. Data was imported into Microsoft Excel and the signal from the 665 nm channel was divided by the signal from the 620 nm channel. % pERK was calculated as: […]
(§13) Data was imported to the Prism software package (Graphpad) and EC50 values were calculated using the log (inhibitor) vs, response—variable slopc (Four parameters) model.
On the technique in general: Time-resolved FRET reads energy transfer from a long-lived donor to a nearby acceptor.

Assay [3] deals with H358 cells (KRAS G12C). Put plainly: 3D Cell viability assay in H358 cells (Biological Example 6). It counts as cell-based. The following applies: H358 (KRAS G12C) spheroids, 72 hours. The method, boiled down:
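3D spheroid viability: 1000 cells/well, 48 h spheroid formation (10% FBS, 37 °C, 5% CO2); 9-pt 3-fold dose curve, 0.25% DMSO, 72 h; CTG 3D luminescence; EC50 by 4-parameter log(inhibitor) vs response fit.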

Assay [4] has as its system H358 cells (KRAS G12C). Put plainly: Cell-based pERK HTRF assay in H358 cells (Biological Example 5). As to the method:
as §7, §8, §9, §10, §11, §12, §13

In assay [5] the target is T1, Avi-KRAS G12C (2-169) GTP/RAF1 RBD-3xFLAG (51-131) (Homo sapiens, UniProt P01116, G12C).
T1 construct: Avi-KRAS G12C (2-169)
T1 sequence (P01116 2-169 isoform P01116-2 G12C): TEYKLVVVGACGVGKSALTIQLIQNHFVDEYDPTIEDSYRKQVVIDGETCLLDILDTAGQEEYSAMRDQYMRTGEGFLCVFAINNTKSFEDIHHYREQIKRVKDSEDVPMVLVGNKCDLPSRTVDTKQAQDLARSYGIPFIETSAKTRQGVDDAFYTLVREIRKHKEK
Put plainly: Raf1-KRAS G12C-GTP disruption HTRF assay (Biological Example 3). To be noted: KRAS G12C, GTP-loaded. Type of assay: binding. The method, boiled down: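 An HTRF assay measured disruption of 50 nM Avi-KRAS (2-169)-GTP (WT, G12C, G12D or G12V) bound to RAF1 RBD-3xFLAG (51-131). Buffer was Tris pH 7.5 with 5 mM MgCl2 and 10% DMSO. Compounds (30–0.005 μM, 3-fold, 10 points) were incubated 1 h at room temperature, and activity is given as % of DMSO.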

The subject of assay [6] is MKN1 cells (KRAS amplification). Put plainly: 3D Cell viability assay in MKN1 cells (Biological Example 6). To be noted: MKN (MKN1, KRAS amplification) spheroids, 72 hours. Type of assay: cell-based. As to the method: as §1, §2, §3, §4, §5, §6

Take `CCN(c1nc(OC[C@@]23CCCN2C[C@H](F)C3)nc2c(F)c(-c3ccc(F)c4sc(N)c(C#N)c34)c(C(F)(F)F)cc12)[C@H]1CC(=O)N2CCC[C@@H]12` (atropisomer, axis not shown; (aS)) [Compound 697, 2-amino-4-((S)-4-(ethyl((1S,7aS)-3-oxohexahydro-1H-pyrrolizin-1-yl)amino)-8-fluoro-2-(((2R,7aS)-2-fluorotetrahydro-1H-pyrrolizin-7a(5H)-yl)methoxy)-6-(trifluoromethyl)quinazolin-7-yl)-7-fluorobenzo[b]thiophene-3-carbonitrile]: the IC50 was at most 100 nM in assay [1] (Homo sapiens, ASPC1); at most 100 nM in assay [2] (Homo sapiens, HPAC); at most 100 nM in assay [3] (Homo sapiens, NCI-H358); at most 100 nM in assay [4] (Homo sapiens, NCI-H358, H358 (KRAS G12C) cells); at most 100 nM in assay [5]; at most 100 nM in assay [6] (Homo sapiens, MKN-1).
Regarding `CCN(c1nc(OCC23CCCN2CC(F)C3)nc2c(F)c(-c3ccc(F)c4sc(N)c(C#N)c34)c(C(F)(F)F)cc12)C1CC(C)N(C(=O)C2CC2(F)F)C1` (stereo not drawn) [Compound 732], the IC50 is at most 100 nM in assay [1]; at most 100 nM in assay [2]; at most 100 nM in assay [3]; at most 100 nM in assay [4] (H358 (KRAS G12C) cells); 100 to 1000 nM in assay [5]; at most 100 nM in assay [6].

The IC50 is the concentration that inhibits the measured activity by half. The low end stands for greater potency, the high end for weaker potency.

Values taken from US20260042764A1, “COMPOSITIONS AND METHODS FOR INHIBITION OF KRAS” (TheRas, Inc., priority 2022, published 2026).
